Assays:
Assay type in all cases: in vivo
[1] = system: ivy-leaved morning glory (Ipomoea hederacea); experiment: Test G Pre-Emergence Protocol; details: Ipomoea, pre-emergence, 312 h, evaluated after 13 days; for pest or weed control at 15.625 g/ha: 15.625 g ai/ha, read-out: Morning-glory, Ivy-leaved damage rating (100=total damage to plant; 0=no damage to plant); for pest or weed control at 62.5 g/ha: 62.5 g ai/ha, 100=total damage to plant, 0=no damage to plant, read-out: plant damage rating, Morningglory, Ivy-leaved; for pest or weed control at 250 g/ha: 250 g ai/ha, read-out: Morningglory, Ivy-leaved damage rating (100=total damage to plant; 0=no damage to plant)
In short: (§1)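 Pre-emergence spray, 15.625/62.5/250 g/ha, vehicle acetone:water 50:50 + 0.5% Tween 20, applied 1 d after sowing. Glasshouse 24/16° C, 14 h light, 65% RH, watered twice daily. Visual damage rating at 13 d, 0–100 scale.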

[2] = system: velvetleaf (Abutilon theophrasti); experiment: Test G Pre-Emergence Protocol; details: Abutilon theophrasti, pre-emergence, 312 h, evaluated after 13 days; for pest or weed control at 15.625 g/ha: 15.625 g ai/ha; for pest or weed control at 15.625 g/ha / pest or weed control at 250 g/ha: read-out: Velvetleaf damage rating (100=total damage to plant; 0=no damage to plant); for pest or weed control at 62.5 g/ha: 62.5 g ai/ha, 100=total damage to plant, 0=no damage to plant, read-out: plant damage rating, Velvetleaf; for pest or weed control at 250 g/ha: 250 g ai/ha
In short: as §1

[3] = system: giant foxtail (Setaria faberi); experiment: Test G Pre-Emergence Protocol; details: Setaria faberi, pre-emergence, 312 h, evaluated after 13 days; for pest or weed control at 15.625 g/ha: 15.625 g ai/ha; for pest or weed control at 15.625 g/ha / pest or weed control at 250 g/ha: read-out: Foxtail, Giant damage rating (100=total damage to plant; 0=no damage to plant); for pest or weed control at 62.5 g/ha: 62.5 g ai/ha, 100=total damage to plant, 0=no damage to plant, read-out: plant damage rating, Foxtail, Giant; for pest or weed control at 250 g/ha: 250 g ai/ha
In short: as §1

corn (Zea mays) [4] = experiment: Test G Pre-Emergence Protocol; details: Zea mays, pre-emergence, 312 h, evaluated after 13 days; for plant injury at 15.625 g/ha: 15.625 g ai/ha; for plant injury at 15.625 g/ha / plant injury at 250 g/ha: read-out: Corn damage rating (100=total damage to plant; 0=no damage to plant); for plant injury at 62.5 g/ha: 62.5 g ai/ha, 100=total damage to plant, 0=no damage to plant, read-out: plant damage rating, Corn; for plant injury at 250 g/ha: 250 g ai/ha
In short: as §1

[5] = system: redroot pigweed (Amaranthus retroflexus); experiment: Test G Pre-Emergence Protocol; details: Amaranthus retroflexus, pre-emergence, 312 h, evaluated after 13 days; for pest or weed control at 15.625 g/ha: 15.625 g ai/ha; for pest or weed control at 15.625 g/ha / pest or weed control at 250 g/ha: read-out: Pigweed, Redroot damage rating (100=total damage to plant; 0=no damage to plant); for pest or weed control at 62.5 g/ha: 62.5 g ai/ha, 100=total damage to plant, 0=no damage to plant, read-out: plant damage rating, Pigweed, Redroot; for pest or weed control at 250 g/ha: 250 g ai/ha
In short: as §1

[6] = system: barnyardgrass (Echinochloa crus-galli); experiment: Test G Pre-Emergence Protocol; details: Echinochloa crus-galli, pre-emergence, 312 h, evaluated after 13 days; for pest or weed control at 15.625 g/ha: 15.625 g ai/ha, read-out: Barnyard grass damage rating (100=total damage to plant; 0=no damage to plant); for pest or weed control at 62.5 g/ha: 62.5 g ai/ha, 100=total damage to plant, 0=no damage to plant, read-out: plant damage rating, Barnyardgrass; for pest or weed control at 250 g/ha: 250 g ai/ha, read-out: Barnyardgrass damage rating (100=total damage to plant; 0=no damage to plant)
In short: as §1

[7] = system: ivy-leaved morning glory (Ipomoea hederacea); experiment: Test G Post-Emergence Protocol; details: Ipomoea, post-emergence, 312 h; for pest or weed control at 15.625 g/ha: 15.625 g ai/ha, evaluated after 13 days (100=total damage to plant; 0=no damage to plant), read-out: Morningglory, Ivy-leaved damage rating; for pest or weed control at 62.5 g/ha: 62.5 g ai/ha, read-out: Morningglory, Ivy-leaved damage rating (100=total damage to plant; 0=no damage to plant); for pest or weed control at 62.5 g/ha / pest or weed control at 250 g/ha: evaluated after 13 days; for pest or weed control at 250 g/ha: 250 g ai/ha, read-out: damage to plant, Morningglory, Ivy-leaved (100=total damage to plant; 0=no damage to plant)
In short: (§2)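 Damage was rated 13 days after treatment from 0 (none) to 100 (plant killed). Compound was applied as a spray at 15.625, 62.5 or 250 g/ha in 50:50 acetone/water containing 0.5% Tween 20, onto 8-day-old potted plants kept in a glasshouse (24/16 °C, 14 h light, 65% humidity).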

[8] = system: velvetleaf (Abutilon theophrasti); experiment: Test G Post-Emergence Protocol; details: Abutilon theophrasti, post-emergence, 312 h; for pest or weed control at 15.625 g/ha: 15.625 g ai/ha, evaluated after 13 days (100=total damage to plant; 0=no damage to plant), read-out: Velvetleaf damage rating; for pest or weed control at 62.5 g/ha: 62.5 g ai/ha, read-out: Velvetleaf damage rating (100=total damage to plant; 0=no damage to plant); for pest or weed control at 62.5 g/ha / pest or weed control at 250 g/ha: evaluated after 13 days; for pest or weed control at 250 g/ha: 250 g ai/ha, read-out: damage to plant, Velvetleaf (100=total damage to plant; 0=no damage to plant)
In short: as §2

[9] = system: giant foxtail (Setaria faberi); experiment: Test G Post-Emergence Protocol; details: Setaria faberi, post-emergence, 312 h; for pest or weed control at 15.625 g/ha: 15.625 g ai/ha, evaluated after 13 days (100=total damage to plant; 0=no damage to plant), read-out: Foxtail, Giant damage rating; for pest or weed control at 62.5 g/ha: 62.5 g ai/ha, read-out: Foxtail, Giant damage rating (100=total damage to plant; 0=no damage to plant); for pest or weed control at 62.5 g/ha / pest or weed control at 250 g/ha: evaluated after 13 days; for pest or weed control at 250 g/ha: 250 g ai/ha, read-out: damage to plant, Foxtail, Giant (100=total damage to plant; 0=no damage to plant)
In short: as §2

corn (Zea mays) [10] = experiment: Test G Post-Emergence Protocol; details: Zea mays, post-emergence, 312 h; for plant injury at 15.625 g/ha: 15.625 g ai/ha, evaluated after 13 days (100=total damage to plant; 0=no damage to plant), read-out: Corn damage rating; for plant injury at 62.5 g/ha: 62.5 g ai/ha, read-out: Corn damage rating (100=total damage to plant; 0=no damage to plant); for plant injury at 62.5 g/ha / plant injury at 250 g/ha: evaluated after 13 days; for plant injury at 250 g/ha: 250 g ai/ha, read-out: damage to plant, Corn (100=total damage to plant; 0=no damage to plant)
In short: as §2

[11] = system: redroot pigweed (Amaranthus retroflexus); experiment: Test G Post-Emergence Protocol; details: Amaranthus retroflexus, post-emergence, 312 h; for pest or weed control at 15.625 g/ha: 15.625 g ai/ha, evaluated after 13 days (100=total damage to plant; 0=no damage to plant), read-out: Pigweed, Redroot damage rating; for pest or weed control at 62.5 g/ha: 62.5 g ai/ha, read-out: Pigweed, Redroot damage rating (100=total damage to plant; 0=no damage to plant); for pest or weed control at 62.5 g/ha / pest or weed control at 250 g/ha: evaluated after 13 days; for pest or weed control at 250 g/ha: 250 g ai/ha, read-out: damage to plant, Pigweed, Redroot (100=total damage to plant; 0=no damage to plant)
In short: as §2

[12] = system: barnyardgrass (Echinochloa crus-galli); experiment: Test G Post-Emergence Protocol; details: Echinochloa crus-galli, post-emergence, 312 h; for pest or weed control at 15.625 g/ha: 15.625 g ai/ha, evaluated after 13 days (100=total damage to plant; 0=no damage to plant), read-out: Barnyardgrass damage rating; for pest or weed control at 62.5 g/ha: 62.5 g ai/ha, read-out: Barnyardgrass damage rating (100=total damage to plant; 0=no damage to plant); for pest or weed control at 62.5 g/ha / pest or weed control at 250 g/ha: evaluated after 13 days; for pest or weed control at 250 g/ha: 250 g ai/ha, read-out: damage to plant, Barnyardgrass (100=total damage to plant; 0=no damage to plant)
In short: as §2

Cc1c(Cl)ncnc1NC(=O)[C@@H]1C(=O)N(C)C[C@H]1c1ccc(C(F)(F)F)cc1 (racemic) [Compound 1581]
pest or weed control at 15.625 g/ha [1]: 0% | pest or weed control at 62.5 g/ha [1]: 0% | pest or weed control at 250 g/ha [1]: 0% | pest or weed control at 15.625 g/ha [2]: 0% | pest or weed control at 62.5 g/ha [2]: 0% | pest or weed control at 250 g/ha [2]: 0% | pest or weed control at 15.625 g/ha [3]: 0% | pest or weed control at 62.5 g/ha [3]: 0% | pest or weed control at 250 g/ha [3]: 0% | plant injury at 15.625 g/ha (corn (Zea mays) [4]): 0% | plant injury at 62.5 g/ha (corn (Zea mays) [4]): 0% | plant injury at 250 g/ha (corn (Zea mays) [4]): 0% | pest or weed control at 15.625 g/ha [5]: 0% | pest or weed control at 62.5 g/ha [5]: 0% | pest or weed control at 250 g/ha [5]: 0% | pest or weed control at 15.625 g/ha [6]: 0% | pest or weed control at 62.5 g/ha [6]: 0% | pest or weed control at 250 g/ha [6]: 0% | pest or weed control at 15.625 g/ha [7]: 0% | pest or weed control at 62.5 g/ha [7]: 0% | pest or weed control at 250 g/ha [7]: 0% | pest or weed control at 15.625 g/ha [8]: 0% | pest or weed control at 62.5 g/ha [8]: 0% | pest or weed control at 250 g/ha [8]: 0% | pest or weed control at 15.625 g/ha [9]: 0% | pest or weed control at 62.5 g/ha [9]: 0% | pest or weed control at 250 g/ha [9]: 0% | plant injury at 15.625 g/ha (corn (Zea mays) [10]): 0% | plant injury at 62.5 g/ha (corn (Zea mays) [10]): 0% | plant injury at 250 g/ha (corn (Zea mays) [10]): 0% | pest or weed control at 15.625 g/ha [11]: 0% | pest or weed control at 62.5 g/ha [11]: 0% | pest or weed control at 250 g/ha [11]: 0% | pest or weed control at 15.625 g/ha [12]: 0% | pest or weed control at 62.5 g/ha [12]: 0% | pest or weed control at 250 g/ha [12]: 10%

CN1C[C@@H](c2ccc(C(F)(F)F)nc2)[C@H](C(=O)Nc2ccccc2S(C)(=O)=O)C1=O (racemic) [Compound 1586]
pest or weed control at 15.625 g/ha [1]: 0% | pest or weed control at 62.5 g/ha [1]: 0% | pest or weed control at 250 g/ha [1]: 10% | pest or weed control at 15.625 g/ha [2]: 0% | pest or weed control at 62.5 g/ha [2]: 0% | pest or weed control at 250 g/ha [2]: 30% | pest or weed control at 15.625 g/ha [3]: 0% | pest or weed control at 62.5 g/ha [3]: 20% | pest or weed control at 250 g/ha [3]: 70% | plant injury at 15.625 g/ha (corn (Zea mays) [4]): 0% | plant injury at 62.5 g/ha (corn (Zea mays) [4]): 10% | plant injury at 250 g/ha (corn (Zea mays) [4]): 30% | pest or weed control at 15.625 g/ha [5]: 0% | pest or weed control at 62.5 g/ha [5]: 40% | pest or weed control at 250 g/ha [5]: 60% | pest or weed control at 15.625 g/ha [6]: 0% | pest or weed control at 62.5 g/ha [6]: 0% | pest or weed control at 250 g/ha [6]: 90% | pest or weed control at 15.625 g/ha [7]: 0% | pest or weed control at 62.5 g/ha [7]: 0% | pest or weed control at 250 g/ha [7]: 40% | pest or weed control at 15.625 g/ha [8]: 0% | pest or weed control at 62.5 g/ha [8]: 10% | pest or weed control at 250 g/ha [8]: 10% | pest or weed control at 15.625 g/ha [9]: 0% | pest or weed control at 62.5 g/ha [9]: 0% | pest or weed control at 250 g/ha [9]: 70% | plant injury at 15.625 g/ha (corn (Zea mays) [10]): 0% | plant injury at 62.5 g/ha (corn (Zea mays) [10]): 0% | plant injury at 250 g/ha (corn (Zea mays) [10]): 30% | pest or weed control at 15.625 g/ha [11]: 0% | pest or weed control at 62.5 g/ha [11]: 0% | pest or weed control at 250 g/ha [11]: 40% | pest or weed control at 15.625 g/ha [12]: 0% | pest or weed control at 62.5 g/ha [12]: 0% | pest or weed control at 250 g/ha [12]: 50%

Source: patent US12077503B2, “Substituted cyclic amides and their use as herbicides” (FMC CORPORATION, priority 2015, dated 2024)
